Laboratory results from patent publication US9624182B2, “Compounds as lysophosphatidic acid receptor antagonists” (Amira Pharmaceuticals, Inc., priority 2009, dated 2017).

What follows are compounds tested against T1, human LPA1 (Homo sapiens, UniProt Q92633) (assay: LPA1 calcium flux assay). Details: CHO cells expressing human LPA1, stimulated with 10 nM LPA; read-out: HLPA1 Ca Flux IC50.
T1 construct: the full-length cDNA for human LPA1 was obtained by PCR of the reverse transcription reaction; expressed in transfected cells
T1 sequence (Q92633 whole entry): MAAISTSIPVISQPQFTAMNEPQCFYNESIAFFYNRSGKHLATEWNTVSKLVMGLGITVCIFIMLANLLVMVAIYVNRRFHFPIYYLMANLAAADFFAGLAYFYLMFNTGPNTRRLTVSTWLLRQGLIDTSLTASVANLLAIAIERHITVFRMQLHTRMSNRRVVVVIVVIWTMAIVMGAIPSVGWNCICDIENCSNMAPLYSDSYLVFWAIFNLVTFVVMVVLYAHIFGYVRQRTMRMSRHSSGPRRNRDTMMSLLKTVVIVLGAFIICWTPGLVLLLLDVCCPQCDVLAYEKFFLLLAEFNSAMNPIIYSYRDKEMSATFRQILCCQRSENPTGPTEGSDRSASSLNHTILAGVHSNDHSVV
Assay type: cell-based
How it was run: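 CHO cells stably expressing cloned human LPA1, serum-starved overnight, loaded with Calcium 4 dye 1 h at 37 °C in HBSS/20 mM Hepes with 0.3% fatty-acid-free HSA. Compounds preincubated 30 min at room temperature, then cells stimulated with 10 nM LPA; intracellular Ca2+ read by fluorescence. IC50 from titration curves.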

IC50, > 50000 nM:
Cc1noc(-c2ccc(-c3ccc(C4(C(=O)O)CC4)cc3)cc2)c1C[S+]([O-])Cc1ccccc1 (stereo not shown) [Compound 1-52, 1-[4′-(3-Methyl-4-phenylmethanesulfinylmethyl-isoxazol-5-yl)-biphenyl-4-yl]-cyclopropanecarboxylic acid]
Cc1noc(-c2ccc(-c3ccc(C4(C(=O)O)CC4)cc3)cc2)c1CC(=O)N[C@@H]1CCc2ccccc21 [Compound 1-65, 1-{4′-[4-(Indan-1-ylcarbamoylmethyl)-3-methyl-isoxazol-5-yl]-biphenyl-4-yl}-cyclopropanecarboxylic acid]
Cc1noc(-c2ccc(-c3ccc(C4(C(=O)O)CC4)cc3)cc2)c1CC(=O)N1Cc2ccccc2C1 [Compound 1-66, 1-(4′-{4-[2-(1,3-Dihydro-isoindol-2-yl)-2-oxo-ethyl]-3-methyl-isoxazol-5-yl}-biphenyl-4-yl)-cyclopropanecarboxylic acid]
Cc1noc(-c2ccc(-c3ccc(C4(C(=O)O)CC4)cc3)cc2)c1CCOCc1ccncc1 [Compound 1-77, 1-(4′-{3-Methyl-4-[2-(pyridin-4-ylmethoxy)-ethyl]-isoxazol-5-yl}-biphenyl-4-yl)-cyclopropanecarboxylic acid]
Cc1noc(-c2ccc(-c3ccc(C4(C(=O)O)CC4)cc3)cc2)c1CCS(=O)(=O)Cc1ccccc1 [Compound 1-85, 1-{4′-[3-Methyl-4-(2-phenylmethanesulfonyl-ethyl)-isoxazol-5-yl]-biphenyl-4-yl}-cyclopropanecarboxylic acid]

IC50, 300 to 1000 nM:
Cc1noc(-c2ccc(-c3ccc(C4(C(=O)O)CC4)cc3)cc2)c1CN(C)C(=O)Cc1ccccc1 [Compound 1-71, 1-(4′-{3-Methyl-4-[(methyl-phenylacetyl-amino)-methyl]-isoxazol-5-yl}-biphenyl-4-yl)-cyclopropanecarboxylic acid]

IC50, 1000 to 50000 nM:
Cc1noc(-c2ccc(-c3ccc(C4(C(=O)O)CC4)cc3)cc2)c1CSCc1ccccc1 [Compound 1-50, 1-[4′-(4-Benzylsulfanylmethyl-3-methyl-isoxazol-5-yl)-biphenyl-4-yl]-cyclopropanecarboxylic acid]
Cc1noc(-c2ccc(-c3ccc(C4(C(=O)O)CC4)cc3)cc2)c1CS(=O)(=O)Cc1ccccc1 [Compound 1-53, 1-[4′-(3-Methyl-4-phenylmethanesulfonylmethyl-isoxazol-5-yl)-biphenyl-4-yl]-cyclopropanecarboxylic acid]
Cc1noc(-c2ccc(-c3ccc(C4(C(=O)O)CC4)cc3)cc2)c1CNC(=O)NCc1ccccc1 [Compound 1-59, 1-{4′-[4-(3-Benzyl-ureidomethyl)-3-methyl-isoxazol-5-yl]-biphenyl-4-yl}-cyclopropanecarboxylic acid]
Cc1noc(-c2ccc(-c3ccc(C4(C(=O)O)CC4)cc3)cc2)c1CNC(=O)CCc1ccccc1 [Compound 1-60, 1-(4′-{3-Methyl-4-[(3-phenyl-propionylamino)-methyl]-isoxazol-5-yl}-biphenyl-4-yl)-cyclopropanecarboxylic acid]
Cc1noc(-c2ccc(-c3ccc(C4(C(=O)O)CC4)cc3)cc2)c1CNS(=O)(=O)Cc1ccccc1Cl [Compound 1-61, 1-(4′-{4-[(2-Chloro-phenylmethanesulfonylamino)-methyl]-3-methyl-isoxazol-5-yl}-biphenyl-4-yl)-cyclopropanecarboxylic acid]
Cc1noc(-c2ccc(-c3ccccc3C3(C(=O)O)CC3)cc2)c1/C=C\CCc1ccccc1 [Compound 1-62, 1-{4′-[3-Methyl-4-((Z)-4-phenyl-but-1-enyl)-isoxazol-5-yl]-biphenyl-2-yl}-cyclopropanecarboxylic acid]
Cc1noc(-c2ccc(-c3ccccc3C3(C(=O)O)CC3)cc2)c1/C=C/CCc1ccccc1 [Compound 1-63, 1-{4′-[3-Methyl-4-((E)-4-phenyl-but-1-enyl)-isoxazol-5-yl]-biphenyl-2-yl}-cyclopropanecarboxylic acid]
Cc1noc(-c2ccc(-c3ccc(C4(C(=O)O)CC4)cc3)cc2)c1CN(CC(C)c1ccccc1)C(=O)C1CC1 (stereo not shown) [Compound 1-73, 1-[4′-(4-{[Cyclopropanecarbonyl-(2-phenyl-propyl)-amino]-methyl}-3-methyl-isoxazol-5-yl)-biphenyl-4-yl]-cyclopropanecarboxylic acid]
Cc1noc(-c2ccc(-c3ccc(C4(C(=O)O)CC4)cc3)cc2)c1CN(CC(C)c1ccccc1)C(=O)c1ccccc1 (stereo not shown) [Compound 1-74, 1-[4′-(4-{[Benzoyl-(2-phenyl-propyl)-amino]-methyl}-3-methyl-isoxazol-5-yl)-biphenyl-4-yl]-cyclopropanecarboxylic acid]
Cc1noc(-c2ccc(-c3ccc(C4(C(=O)O)CC4)cc3)cc2)c1CCOCc1ccccn1 [Compound 1-75, 1-(4′-{3-Methyl-4-[2-(pyridin-2-ylmethoxy)-ethyl]-isoxazol-5-yl}-biphenyl-4-yl)-cyclopropanecarboxylic acid]
Cc1noc(-c2ccc(-c3ccc(C4(C(=O)O)CC4)cc3)cc2)c1CCOCc1cccnc1 [Compound 1-76, 1-(4′-{3-Methyl-4-[2-(pyridin-3-ylmethoxy)-ethyl]-isoxazol-5-yl}-biphenyl-4-yl)-cyclopropanecarboxylic acid]
Cc1noc(-c2ccc(-c3ccc(C4(C(=O)O)CC4)cc3)cc2)c1CC[S+]([O-])Cc1ccccc1 (stereo not shown) [Compound 1-84, 1-{4′-[3-Methyl-4-(2-phenylmethanesulfinyl-ethyl)-isoxazol-5-yl]-biphenyl-4-yl}-cyclopropanecarboxylic acid]

IC50, < 300 nM:
Cc1noc(-c2ccc(-c3ccc(C4(C(=O)O)CC4)cc3)cc2)c1C[S+]([O-])CCc1ccccc1 (stereo not shown) [Compound 1-54, 1-{4′-[3-Methyl-4-(2-phenyl-ethanesulfinylmethyl)-isoxazol-5-yl]-biphenyl-4-yl}-cyclopropanecarboxylic acid]
Cc1noc(-c2ccc(-c3ccc(C4(C(=O)O)CC4)cc3)cc2)c1CS(=O)(=O)CCc1ccccc1 [Compound 1-55, 1-{4′-[3-Methyl-4-(2-phenyl-ethanesulfonylmethyl)-isoxazol-5-yl]-biphenyl-4-yl}-cyclopropanecarboxylic acid]
Cc1noc(-c2ccc(-c3ccc(C4(C(=O)O)CC4)cc3)cc2)c1CNC(=O)OCc1ccccc1 [Compound 1-57, 1-{4′-[4-(Benzyloxycarbonylamino-methyl)-3-methyl-isoxazol-5-yl]-biphenyl-4-yl}-cyclopropanecarboxylic acid]
Cc1noc(-c2ccc(-c3ccc(C4(C(=O)O)CC4)cc3)cc2)c1CNC(=O)Cc1ccccc1 [Compound 1-58, 1-{4′-[3-Methyl-4-(phenylacetylamino-methyl)-isoxazol-5-yl]-biphenyl-4-yl}-cyclopropanecarboxylic acid]
Cc1noc(-c2ccc(-c3ccc(C4(C(=O)O)CC4)cc3)cc2)c1CNC(=O)C1(c2ccccc2)CC1 [Compound 1-64, 1-[4′-(3-Methyl-4-{[(1-phenyl-cyclopropanecarbonyl)-amino]-methyl}-isoxazol-5-yl)-biphenyl-4-yl]-cyclopropanecarboxylic acid]
Cc1noc(-c2ccc(-c3ccc(C4(C(=O)O)CC4)cc3)cc2)c1CN(C)CCc1ccccc1 [Compound 1-67, 1-(4′-{3-Methyl-4-[(methyl-phenethyl-amino)-methyl]-isoxazol-5-yl}-biphenyl-4-yl)-cyclopropanecarboxylic acid]
CC(=O)N(Cc1c(C)noc1-c1ccc(-c2ccc(C3(C(=O)O)CC3)cc2)cc1)CC(C)c1ccccc1 (stereo not shown) [Compound 1-70, 1-[4′-(4-{[Acetyl-(2-phenyl-propyl)-amino]-methyl}-3-methyl-isoxazol-5-yl)-biphenyl-4-yl]-cyclopropanecarboxylic acid]
Cc1noc(-c2ccc(-c3ccc(C4(C(=O)O)CC4)cc3)cc2)c1CN(C)C(=O)C(C)Oc1ccccc1 (stereo not shown) [Compound 1-72, 1-[4′-(3-Methyl-4-{[methyl-(2-phenoxy-propionyl)-amino]-methyl}-isoxazol-5-yl)-biphenyl-4-yl]-cyclopropanecarboxylic acid]
Cc1noc(-c2ccc(-c3ccc(C4(C(=O)O)CC4)cc3)cc2)c1CCC(=O)N(C)c1ccccc1 [Compound 1-82, 1-(4′-{3-Methyl-4-[2-(methyl-phenyl-carbamoyl)-ethyl]-isoxazol-5-yl}-biphenyl-4-yl)-cyclopropanecarboxylic acid]
Cc1noc(-c2ccc(-c3ccc(C4(C(=O)O)CC4)cc3)cc2)c1CN(C)CC(C)c1ccccc1 (stereo not shown) [Compound 1-87, 1-[4′-(3-Methyl-4-{[methyl-(2-phenyl-propyl)-amino]-methyl}-isoxazol-5-yl)-biphenyl-4-yl]-cyclopropanecarboxylic acid]
Cc1noc(-c2ccc(-c3ccc(C4(C(=O)O)CC4)cc3)cc2)c1CC(=O)CCc1ccccc1 [Compound 1-88, 1-{4′-[3-Methyl-4-(2-oxo-4-phenyl-butyl)-isoxazol-5-yl]-biphenyl-4-yl}-cyclopropanecarboxylic acid]
Cc1noc(-c2ccc(-c3ccc(C4(C(=O)O)CC4)cc3)cc2)c1CC(=O)NC1Cc2ccccc2C1 [Compound 1-90, 1-{4′-[4-(Indan-2-ylcarbamoylmethyl)-3-methyl-isoxazol-5-yl]-biphenyl-4-yl}-cyclopropanecarboxylic acid]
Cc1noc(-c2ccc(-c3ccc(C4(C(=O)O)CC4)cc3)cc2)c1CC(=O)N(C)Cc1ccccc1F [Compound 1-91, 1-[4′-(4-{[(2-Fluoro-benzyl)-methyl-carbamoyl]-methyl}-3-methyl-isoxazol-5-yl)-biphenyl-4-yl]-cyclopropanecarboxylic acid]
